Holding throughout (type): cell-based, human
Experiment [1] relates to T4302 CD133+ cells. As to the kind of experiment: Caspase 3/7 activation (apoptosis). The following applies: for apoptotic cell death: following 3-Gy X-ray radiation, 2 μM DAPT or 0.5 μM L685,458. The procedure: (A) T4302 CD133+ GBM stem cells were enriched from freshly collected subcutaneous xenograft tumors, cultured in stem cell media. Cells were left unirradiated or irradiated at 3 Gy. The relative mRNA levels of Hes2 were determined by quantitative real-time PCR at the time points as indicated. (B) T4302 CD133+ cells were pre-treated with vehicle (DMSO), 2 μM DAPT or 0.5 μM L685,458 for 4 hours and irradiated as indicated. Cells were then plated to form neurospheres. Fourteen days after plating, neurospheres containing more than 50 cells were scored. To determine the surviving fractions, the number of neurosphere at each radiation dose was normalized to that of the corresponding sham-irradiated group. (C) T4302 CD133+ cells were treated with GSIs±radiation as indicated. Relative caspase 3/7 activities were determined by normalizing caspase activities to the corresponding cell numbers. (D), (E) T4302 CD133+ cells were infected with lentivirus directing expression of non-targeting shRNA or shRNAs specific to Notch1 or Notch2 (KD-Notch1 or KD-Notch2), and selected with puromycin. Relative caspase 3/7 activities and clonogenic survival were determined as described above. (F) T4302 CD133+ cells were infected with control lentivirus or lentivirus directing expression of NICD2. Clonogenic survival was determined as described above. *: p<0.05 by Student's t-test; #: p<0.01 by one-way ANOVA.
(A, B) T4302 CD133+ cells were treated with 100 nM RO4929097 (GSI) and/or 100 nM tipifarnib (FTI) for 4 hours prior to 3 Gy radiation. (A) Cell growth on day 5 and (B) caspase 3/7 activation on day 3 were determined as described in FIG. 4. #: p<0.001 by one-way ANOVA, combo vs. single agents. (C) The effects of GSIs and FTI against growth of T4302 CD133− cells were determined as described in panel A. (D, E) T4302 CD133+ cells were treated with GSI, FTI, or a 1:1 mixture at different concentrations (ranging from 3000 nM to ˜0.5 nM, 1:3 dilution)±3 Gy radiation. Cell viability was determined at 5 days after treatment in comparison to vehicle-treated groups. […] (F) T4302 CD 133+ cells were treated by GSI±FTI with a 2-fold dilution. Neurospheres were countered on day 10, and normalized to the vehicle-treated group.

Experiment [2] relates to T4302 CD133+ cells. The experiment can be described thus: Neurosphere formation (clonogenic survival). As to conditions: following 3-Gy X-ray radiation; 2 μM DAPT or 0.5 μM L685,458, 4 h pre-treatment. The procedure:
(A) T4302 CD133+ GBM stem cells were enriched from freshly collected subcutaneous xenograft tumors, cultured in stem cell media. Cells were left unirradiated or irradiated at 3 Gy. The relative mRNA levels of Hes2 were determined by quantitative real-time PCR at the time points as indicated. (B) T4302 CD133+ cells were pre-treated with vehicle (DMSO), 2 μM DAPT or 0.5 μM L685,458 for 4 hours and irradiated as indicated. Cells were then plated to form neurospheres. Fourteen days after plating, neurospheres containing more than 50 cells were scored. […] Relative caspase 3/7 activities were determined by normalizing caspase activities to the corresponding cell numbers. […] Relative caspase 3/7 activities and clonogenic survival were determined as described above. […] Clonogenic survival was determined as described above. *: p<0.05 by Student's t-test; #: p<0.01 by one-way ANOVA.
(A, B) T4302 CD133+ cells were treated with 100 nM RO4929097 (GSI) and/or 100 nM tipifarnib (FTI) for 4 hours prior to 3 Gy radiation. (A) Cell growth on day 5 and (B) caspase 3/7 activation on day 3 were determined as described in FIG. 4. #: p<0.001 by one-way ANOVA, combo vs. single agents. […] Cell viability was determined at 5 days after treatment in comparison to vehicle-treated groups. […]

The test system of another experiment is CD133+ GBM stem cells. As to the kind of experiment: Growth inhibition within 5 days, panel of glioblastoma xenograft samples. The following applies: 5-day period; in combination with 3 Gy radiation. The procedure:
CD133+ cells were derived from multiple glioblastoma xenograft samples as indicated. The growth inhibitory effects by GSI and/or FTIs were determined as described in FIG. 5.
Therefore, effective killing of GBM stem cells may delay or even prevent tumor recurrence. […] In combination with radiation, GSIs or FTIs alone reduced cell numbers by ˜75%.

The next experiment relates to GBM 44. The experiment can be described thus: Growth inhibition at day 5, spheroid GBM culture. The procedure:
(A) Known genetic features of selected GBM samples. WT: wild type; Amp: amplification; vIII: EGFRvIII; ND: not determined. (B) Spheroid GBM cultures were derived from freshly collected subcutaneous tumors and cultured for 2 weeks in stem cell media to enrich stem cell-like cancer cells. SF7225 was maintained as a primary spheroid culture. Growth inhibition at day 5 after treatment was determined as described in FIG. 5. *: p<0.01 by Student's t-test and growth inhibition ≧30% vs. the corresponding vehicle-treated groups. #: p<0.01 and >30% growth inhibition vs. the radiation only groups.
Work is now extended to a set of subcutaneous GBM xenografts (GBM) established by Dr. Jann Sarkaria and colleagues at Mayo Clinic. These samples are known to have mutational status of EGFR, p53 and PTEN and different radiosensitivity (FIG. 8A) (69-71). Because the cancer stem cell identity of CD133+ of the Mayo Clinic samples has not been validated by functional assays, the present inventor used the neurosphere culture that is widely utilized as a surrogate of GSCs for its ability to enrich GSC-like population (72, 73). Tumor response to GSI, FTI and/or radiation was determined as growth inhibition on day 5 after treatment, with a greater than 30% cell number reduction was defined as positive response mimicking the RECIST criteria (FIG. 8B). […] Therefore, the present inventor will continuously expand the GBM panel and determine the genomic features of all samples with focus on prevalent GBM-associated aberrations. On the basis of this molecularly characterized tumor panel, the present inventor will start to explore the potential biomarkers that may predict tumor response to the combination therapy of radiation, GSI and FTI by experiments described in herein.

Consider `C[C@H](NC(=O)Cc1cc(F)cc(F)c1)C(=O)N[C@H](C(=O)OC(C)(C)C)c1ccccc1` [DAPT], for which, in the experiment on T4302 CD133+ cells [1], the apoptotic cell death result was “increased apoptotic cell death”. In the experiment on T4302 CD133+ cells [2], the clonogenic survival entry is “reduced clonogenic survival”.
`Cn1cncc1[C@@](N)(c1ccc(Cl)cc1)c1ccc2c(c1)c(-c1cccc(Cl)c1)cc(=O)n2C` [tipifarnib]: the “increase of caspase 3/7 activity compared with the sham-treated group” value in the experiment on T4302 CD133+ cells [1] (following 3-Gy radiation, 100 nM, day 3) is “approximately 2 fold”. Further, the “growth inhibition / reduction of cell numbers” value with CD133+ GBM stem cells is recorded as approximately 75%. Also, the “growth inhibition on day 5” value was 23.4±6.4% in the experiment on GBM 44 (0 Gy) and 42±7.2% in the experiment with GBM 44 (3 Gy).
Turning to `CC(C)C[C@H](NC(=O)[C@H](Cc1ccccc1)C[C@@H](O)[C@H](Cc1ccccc1)NC(=O)OC(C)(C)C)C(=O)N[C@@H](Cc1ccccc1)C(N)=O` [L-685,458], the apoptotic cell death entry in the experiment with T4302 CD133+ cells [1] is on record as “increased apoptotic cell death”. For the same molecule, the clonogenic survival entry in the experiment on T4302 CD133+ cells [2] is given as “reduced clonogenic survival”.

The values are drawn from patent US8853274B1, “Compositions and methods for targeting glioblastomas cells” (Vanderbilt University, priority 2011, dated 2014).
